In brackets after ≈: the same amount, converted by molar mass. Like-named read-outs stand apart in the source and are kept apart here. Positions of bridges follow the written chain, without caps; N, C: chain ends. Non-standard residues stand in square brackets, D forms with d. Residues, ends and D or L forms follow the SMILES beside them. *: point of attachment. Decanoyl(3R-OH) = CCCCCCC[C@@H](O)CC(=O)*; Octanoyl(3-OH) = CCCCCC(O)CC(=O)*; X13 = CCCCCCCCCC(O)CC(=O)*; dDab = NCC[C@@H](N)C(=O)O; X8 = CC(C)CCCC(C)CC(=O)*; dDap = NC[C@@H](N)C(=O)O; Dab = NCC[C@H](N)C(=O)O; Pentanoyl = CCCCC(=O)*
Legend:
[1] = in vitro; conditions: human
Protocol: Cytotoxicity of the synthesised peptides was evaluated by comparison with commercially available colistin (polymyxin E), polymyxin B (Sigma chemical Co., St. Louis, Mo., U.S.A.) and synthetic octapeptin C4 by conducting lactate dehydrogenase (LDH) assay. CC50 values calculated based on curve fitting of dose dependent inhibition of cell growth represented the cytotoxicity of the peptide. Human kidney 2 (HK2) cells were seeded as 2000 cells per well in a 384 well cell culture plate in a final volume of 20 μL in DMEM/F12 medium (Invitrogen #11330057), in which 10% of FBS was added. Cells were incubated for 24 hours at 37° C., 5% CO2 to allow cells to attach to the plates. Similar conditions were employed for HEK293 and HepG2 cytotoxicity assays.
Colistin and polymyxin B were tested from a range of 2 mM to 0.9 μM. 120 μL of the 1 mM stock solutions in water of each synthesised peptide were freeze-dried and processed for LDH assay. After freeze-dry procedure, the compounds were reconstituted into 600 μM solutions using culture media. All tested compounds were diluted from 600 μM to 0.27 μM in 3-fold dilutions. Then 20 μL of each dilution was added into 20 uL of culture medium in quadruplicate to reach the final concentrations. The cells were incubated with the compounds for 24 h at 37° C., 5% CO2. After the incubation, 5 μL of culture medium was added to 50 μL of LDH assay buffer and incubated for 1 h at room temperature. The absorbance was read at 450 nm using Polarstar. The data was then analysed by Prism software. […] Nephrotoxicity Assessment in Human Proximal Tubule Cells.

[2] = tested on: K. pneumoniae ATCC 700603, MDR; conditions: ATCC 700603
In short: (§1)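 Mid-log cultures grown in Mueller Hinton broth at 37° C were tested by 2-fold broth microdilution at 5×10^5 CFU/mL final. Compounds were dissolved in water and tested over a final range of 32 to 0.015 μg/mL.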

[3] = tested on: P. aeruginosa ATCC 27853; conditions: ATCC 27853
In short: as §1

[4] = tested on: A. baumannii GN_093 PmxR; conditions: GN 093 PmxR
In short: as §1

[5] = tested on: K. pneumoniae GN_102 PmxR; conditions: GN 102 PmxR
In short: as §1

[6] = tested on: K. pneumoniae ATCC 13883; conditions: ATCC 13883
In short: as §1

[7] = tested on: S. aureus ATCC 25923, MSSA; conditions: ATCC 25923
In short: as §1

[8] = tested on: P. aeruginosa GN_105, PmxR; conditions: GN 105, PmxR
In short: as §1

[9] = tested on: A. baumannii ATCC 19606; conditions: ATCC 19606
In short: as §1

[10] = tested on: P. aeruginosa GN_043, PmxR
In short: as §1

[11] = tested on: K. pneumoniae GN_106, PmxR; conditions: GN 106, PmxR
In short: as §1

[12] = tested on: K. pneumoniae ATCC BAA-2146, NDM-1 pos; conditions: ATCC BAA-2146
In short: as §1

[13] = tested on: E. coli ATCC 25922; conditions: ATCC 25922
In short: as §1

| SMILES | CC50 at 24 h [1] | MIC K. pneumoniae ATCC 700603, MDR [2] | MIC P. aeruginosa ATCC 27853 [3] | MIC A. baumannii GN_093 PmxR [4] | MIC K. pneumoniae ATCC 13883 [6] | MIC S. aureus ATCC 25923, MSSA [7] | MIC P. aeruginosa GN_105, PmxR [8] | MIC A. baumannii ATCC 19606 [9] | MIC P. aeruginosa GN_043, PmxR ([10]; P. aeruginosa GN_043, PmxR) | MIC K. pneumoniae GN_106, PmxR [11] | MIC K. pneumoniae ATCC BAA-2146, NDM-1 pos [12] | MIC E. coli ATCC 25922 [13] | MIC P. aeruginosa GN_043, PmxR [10] | also measured |
| --- | --- | --- | --- | --- | --- | --- | --- | --- | --- | --- | --- | --- | --- | --- |
| CCCCCCC[C@@H](O)CC(=O)N[C@H](CN)C(=O)N[C@H]1CCNC(=O)[C@H]([C@@H](C)O)NC(=O)[C@H](CCN)NC(=O)[C@H](CCN)NC(=O)[C@H](CC(C)C)NC(=O)[C@@H](Cc2ccccc2)NC(=O)[C@H](CCN)NC1=O [compound 6395, 3(R)OH-nC9CO-D-Dap-cyc[L-Dab-L-Dab-D-Phe-L-Leu-L-Dab-L-Dab-L-Thr]] ({Decanoyl(3R-OH)}-[dDap][Dab][Dab][dF]L[Dab][Dab]T; lactam 2-C) | > 300 µM | 1 µg/mL (≈ 0.982 µM) | 2 µg/mL (≈ 1.96 µM) | >32 µg/mL | 8 µg/mL (≈ 7.86 µM) | >32 µg/mL | 2 µg/mL (≈ 1.96 µM) | 16 µg/mL (≈ 15.7 µM) | 2 µg/mL (≈ 1.96 µM) | 32 µg/mL (≈ 31.4 µM) | 2 µg/mL (≈ 1.96 µM) | 2 µg/mL (≈ 1.96 µM) |  | MIC K. pneumoniae GN_102 PmxR [5]: 16 µg/mL (≈ 15.7 µM) |
| CC(C)CCCC(C)CC(=O)N[C@H](CCN)C(=O)N[C@H]1CCNC(=O)[C@H](CC(C)C)NC(=O)[C@H](CCN)NC(=O)[C@H](CCN)NC(=O)[C@H](Cc2ccccc2)NC(=O)[C@@H](CC(C)C)NC(=O)[C@H](CCN)NC1=O (stereo partly drawn) [compound 6515, 3,7-dimethyloctanoic acid-D-Dab-cyc[L-Dab-L-Dab-D-Leu-L-Phe-L-Dab-L-Dab-L-Leu]] (X8-[dDab][Dab][Dab][dL]F[Dab][Dab]L; lactam 2-C) | 80 µM | 4 µg/mL (≈ 3.89 µM) | 2 µg/mL (≈ 1.94 µM) | 16 µg/mL (≈ 15.6 µM) | 8 µg/mL (≈ 7.78 µM) | 32 µg/mL (≈ 31.1 µM) | 2 µg/mL (≈ 1.94 µM) | >32 µg/mL | 2 µg/mL (≈ 1.94 µM) | 32 µg/mL (≈ 31.1 µM) | 8 µg/mL (≈ 7.78 µM) | 2 µg/mL (≈ 1.94 µM) |  | MIC K. pneumoniae GN_102 PmxR [5]: 16 µg/mL (≈ 15.6 µM) |
| CCCCCCC[C@@H](O)CC(=O)N[C@H](CO)C(=O)N[C@H]1CCNC(=O)[C@H](CC(C)C)NC(=O)[C@H](CCN)NC(=O)[C@H](CCN)NC(=O)[C@H](CC(C)C)NC(=O)[C@@H](Cc2ccccc2)NC(=O)[C@H](CCN)NC1=O [compound 918, 3(R)OH-nC9CO-D-Ser-cyc[L-Dab-L-Dab-D-Phe-L-Leu-L-Dab-L-Dab-L-Leu]] ({Decanoyl(3R-OH)}-[dS][Dab][Dab][dF]L[Dab][Dab]L; lactam 2-C) | 113 µM |  |  |  |  |  |  |  |  |  |  |  |  | MIC, K. pneumoniae ATCC 700603, MDR [2]: 8 µg/mL (≈ 7.76 µM); MIC, P. aeruginosa ATCC 27853 [3]: 8 µg/mL (≈ 7.76 µM); MIC, K. pneumoniae ATCC 13883 [6]: 8 µg/mL (≈ 7.76 µM); MIC, A. baumannii ATCC 19606 [9]: 4 µg/mL (≈ 3.88 µM); MIC P. aeruginosa GN_043, PmxR ([10]; Table 6, polymyxin-resistant): >32 µg/mL; MIC, K. pneumoniae ATCC BAA-2146, NDM-1 pos [12]: 4 µg/mL (≈ 3.88 µM); MIC, E. coli ATCC 25922 [13]: 8 µg/mL (≈ 7.76 µM) |
| CCCCCCC[C@@H](O)CC(=O)N[C@H](CCN)C(=O)N[C@H]1CCNC(=O)[C@H](Cc2ccccc2)NC(=O)[C@H](CCN)NC(=O)[C@H](CCN)NC(=O)[C@H](Cc2ccccc2)NC(=O)[C@@H](Cc2ccccc2)NC(=O)[C@H](CCN)NC1=O [compound 5005, 3(R)OH-nC9CO-D-Dab-cyc[L-Dab-L-Dab-D-Phe-L-Phe-L-Dab-L-Dab-L-Phe]] ({Decanoyl(3R-OH)}-[dDab][Dab][Dab][dF]F[Dab][Dab]F; lactam 2-C) | 54 µM | 8 µg/mL (≈ 7.19 µM) | 2 µg/mL (≈ 1.8 µM) |  | 4 µg/mL (≈ 3.6 µM) |  |  | >32 µg/mL |  |  | 8 µg/mL (≈ 7.19 µM) | 8 µg/mL (≈ 7.19 µM) |  | MIC P. aeruginosa GN_043, PmxR ([10]; polymyxin-resistant): 2 µg/mL (≈ 1.8 µM) |
| CCCCCCCCCC(O)CC(=O)N[C@H](CCN)C(=O)N[C@H]1CCNC(=O)[C@H](CC(C)C)NC(=O)[C@H](CCN)NC(=O)[C@H](CCN)NC(=O)[C@H](CC(C)C)NC(=O)[C@@H](Cc2ccccc2)NC(=O)[C@H](CCN)NC1=O (stereo partly drawn) [compound 5014, 3OH-nC11CO-D-Dab-cyc[L-Dab-L-Dab-D-Phe-L-Leu-L-Dab-L-Dab-L-Leu]] (X13-[dDab][Dab][Dab][dF]L[Dab][Dab]L; lactam 2-C) | 19 µM | 8 µg/mL (≈ 7.46 µM) | 4 µg/mL (≈ 3.73 µM) |  | 4 µg/mL (≈ 3.73 µM) | 4 µg/mL (≈ 3.73 µM) | 32 µg/mL (≈ 29.8 µM) | 8 µg/mL (≈ 7.46 µM) |  |  | 16 µg/mL (≈ 14.9 µM) | 2 µg/mL (≈ 1.86 µM) | 4 µg/mL (≈ 3.73 µM) |  |
| CCCCCC(O)CC(=O)N[C@H](CCN)C(=O)N[C@H]1CCNC(=O)[C@H](CC(C)C)NC(=O)[C@H](CCN)NC(=O)[C@H](CCN)NC(=O)[C@H](CC(C)C)NC(=O)[C@@H](Cc2ccccc2)NC(=O)[C@H](CCN)NC1=O (stereo partly drawn) [compound 5012, 3OH-nC7CO-D-Dab-cyc[L-Dab-L-Dab-D-Phe-L-Leu-L-Dab-L-Dab-L-Leu]] ({Octanoyl(3-OH)}-[dDab][Dab][Dab][dF]L[Dab][Dab]L; lactam 2-C) | 130 µM | 16 µg/mL (≈ 15.7 µM) | 4 µg/mL (≈ 3.94 µM) | >32 µg/mL | 8 µg/mL (≈ 7.87 µM) | >32 µg/mL | 4 µg/mL (≈ 3.94 µM) | >32 µg/mL |  | >32 µg/mL | 32 µg/mL (≈ 31.5 µM) | 32 µg/mL (≈ 31.5 µM) | 4 µg/mL (≈ 3.94 µM) |  |
| CCCCCCC[C@@H](O)CC(=O)N[C@H](CCN)C(=O)N[C@H]1CCNC(=O)[C@H](Cc2ccccc2)NC(=O)[C@H](CCN)NC(=O)[C@H](CCN)NC(=O)[C@H](CC(C)C)NC(=O)[C@@H](Cc2ccccc2)NC(=O)[C@H](CCN)NC1=O [compound 5004, 3(R)OH-nC9CO-D-Dab-cyc[L-Dab-L-Dab-D-Phe-L-Leu-L-Dab-L-Dab-L-Phe]] ({Decanoyl(3R-OH)}-[dDab][Dab][Dab][dF]L[Dab][Dab]F; lactam 2-C) | 23 µM | 8 µg/mL (≈ 7.42 µM) | 4 µg/mL (≈ 3.71 µM) |  | 4 µg/mL (≈ 3.71 µM) |  | 8 µg/mL (≈ 7.42 µM) | 4 µg/mL (≈ 3.71 µM) |  |  | 4 µg/mL (≈ 3.71 µM) | 8 µg/mL (≈ 7.42 µM) |  | MIC P. aeruginosa GN_043, PmxR ([10]; polymyxin-resistant): 2 µg/mL (≈ 1.85 µM) |
| CCCCCCC[C@@H](O)CC(=O)N[C@H](CO)C(=O)N[C@H]1CCNC(=O)[C@H]([C@@H](C)O)NC(=O)[C@H](CCN)NC(=O)[C@H](CCN)NC(=O)[C@H](CC(C)C)NC(=O)[C@@H](Cc2ccccc2)NC(=O)[C@H](CCN)NC1=O [compound 754, 3(R)OH-nC9CO-D-Ser-cyc[L-Dab-L-Dab-D-Phe-L-Leu-L-Dab-L-Dab-L-Thr]] ({Decanoyl(3R-OH)}-[dS][Dab][Dab][dF]L[Dab][Dab]T; lactam 2-C) | 154 µM | 32 µg/mL (≈ 31.4 µM) | 4 µg/mL (≈ 3.92 µM) |  | 32 µg/mL (≈ 31.4 µM) |  |  | 16 µg/mL (≈ 15.7 µM) | >32 µg/mL |  | 32 µg/mL (≈ 31.4 µM) | 32 µg/mL (≈ 31.4 µM) |  |  |
| CCCCC(=O)N[C@H](CCN)C(=O)N[C@H]1CCNC(=O)[C@H](CC(C)C)NC(=O)[C@H](CCN)NC(=O)[C@H](CCN)NC(=O)[C@H](CC(C)C)NC(=O)[C@@H](Cc2ccccc2)NC(=O)[C@H](CCN)NC1=O [compound 919, C4CO-D-Dab-cyc[L-Dab-L-Dab-D-Phe-L-Leu-L-Dab-L-Dab-L-Leu]] (Pentanoyl-[dDab][Dab][Dab][dF]L[Dab][Dab]L; lactam 2-C) | > 300 µM | >32 µg/mL | 2 µg/mL (≈ 2.09 µM) |  | 32 µg/mL (≈ 33.4 µM) |  |  | 16 µg/mL (≈ 16.7 µM) |  |  | 16 µg/mL (≈ 16.7 µM) | 32 µg/mL (≈ 33.4 µM) | >32 µg/mL |  |
